In the supplement of paper PMC10307832:

Columns and labels:
Assay in all cases: relative viability (nuclei count vs DMSO), 5 days (fraction); higher = more cells survive
NCI-H1650 = settings: first compound 0.1 µM
How it was run: (§1)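 Dosing by pin tool came one day after lung cancer cell lines were seeded in 1536-well plates, using either one drug or a fixed anchor-drug dose plus five library-drug doses (not always all listed) in √10 steps. After 5 days, nuclei were counted on 4× images. Relative viability is treated-well nuclei count divided by vehicle-well nuclei count, and values are medians of duplicate plates.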

NCI-H1666 = test system: NCI-H1666
How it was run: as §1

NCI-H1793 = test system: NCI-H1793
How it was run: as §1

NCI-H1944 = test system: NCI-H1944
How it was run: as §1

NCI-H2085 = test system: NCI-H2085
How it was run: as §1

NCI-H2087 = test system: NCI-H2087
How it was run: as §1

NCI-H2126 = test system: NCI-H2126
How it was run: as §1

NCI-H3122 = test system: NCI-H3122
How it was run: as §1

NCI-H441 = test system: NCI-H441
How it was run: as §1

NCI-H596 = test system: NCI-H596
How it was run: as §1

NCI-H661 = test system: NCI-H661
How it was run: as §1

PC-14 = test system: PC-14
How it was run: as §1

SMILES: Cc1cn(-c2cc(NC(=O)c3ccc(C)c(Nc4nccc(-c5cccnc5)n4)c3)cc(C(F)(F)F)c2)cn1 [Nilotinib] + CCNC(=O)c1noc(-c2cc(C(C)C)c(O)cc2O)c1-c1ccc(CN2CCOCC2)cc1 [Luminespib] (partner 0.01 µM)
- relative viability (NCI-H1650): 0.192
- relative viability (NCI-H1666; first compound 0.001 µM): 1.02
- relative viability (NCI-H1666; first compound 0.003162 µM): 1.01
- relative viability (NCI-H1666; first compound 0.01 µM): 1.1
- relative viability (NCI-H1666; first compound 0.03162 µM): 0.999
- relative viability (NCI-H1666; first compound 0.1 µM): 1.17
- relative viability (NCI-H1793; first compound 0.001 µM): 0.158
- relative viability (NCI-H1793; first compound 0.003162 µM): 0.162
- relative viability (NCI-H1793; first compound 0.01 µM): 0.195
- relative viability (NCI-H1793; first compound 0.03162 µM): 0.168
- relative viability (NCI-H1793; first compound 0.1 µM): 0.166
- relative viability (NCI-H1944; first compound 0.001 µM): 0.627
- relative viability (NCI-H1944; first compound 0.003162 µM): 0.669
- relative viability (NCI-H1944; first compound 0.01 µM): 0.669
- relative viability (NCI-H1944; first compound 0.03162 µM): 0.694
- relative viability (NCI-H2085; first compound 0.001 µM): 0.392
- relative viability (NCI-H2085; first compound 0.003162 µM): 0.46
- relative viability (NCI-H2085; first compound 0.01 µM): 0.427
- relative viability (NCI-H2085; first compound 0.03162 µM): 0.375
- relative viability (NCI-H2085; first compound 0.1 µM): 0.382
- relative viability (NCI-H2087; first compound 0.001 µM): 0.162
- relative viability (NCI-H2087; first compound 0.003162 µM): 0.219
- relative viability (NCI-H2087; first compound 0.01 µM): 0.202
- relative viability (NCI-H2087; first compound 0.03162 µM): 0.172
- relative viability (NCI-H2087; first compound 0.1 µM): 0.164
- relative viability (NCI-H2126; first compound 0.001 µM): 0.832
- relative viability (NCI-H2126; first compound 0.003162 µM): 1
- relative viability (NCI-H2126; first compound 0.01 µM): 1.1
- relative viability (NCI-H2126; first compound 0.03162 µM): 0.936
- relative viability (NCI-H2126; first compound 0.1 µM): 0.596
- relative viability (NCI-H3122; first compound 0.001 µM): 0.109
- relative viability (NCI-H3122; first compound 0.003162 µM): 0.106
- relative viability (NCI-H3122; first compound 0.01 µM): 0.0956
- relative viability (NCI-H3122; first compound 0.03162 µM): 0.0805
- relative viability (NCI-H3122; first compound 0.1 µM): 0.047
- relative viability (NCI-H441; first compound 0.001 µM): 0.33
- relative viability (NCI-H441; first compound 0.003162 µM): 0.375
- relative viability (NCI-H441; first compound 0.01 µM): 0.322
- relative viability (NCI-H441; first compound 0.03162 µM): 0.413
- relative viability (NCI-H441; first compound 0.1 µM): 0.304
- relative viability (NCI-H596; first compound 0.001 µM): 1.16
- relative viability (NCI-H596; first compound 0.003162 µM): 1.05
- relative viability (NCI-H596; first compound 0.01 µM): 1.01
- relative viability (NCI-H596; first compound 0.03162 µM): 0.655
- relative viability (NCI-H596; first compound 0.1 µM): 0.833
- relative viability (NCI-H661; first compound 0.001 µM): 1.01
- relative viability (NCI-H661; first compound 0.003162 µM): 0.961
- relative viability (NCI-H661; first compound 0.03162 µM): 1.01
- relative viability (NCI-H661; first compound 0.1 µM): 0.832
- relative viability (PC-14; first compound 0.001 µM): 0.168
- relative viability (PC-14; first compound 0.003162 µM): 0.152
- relative viability (PC-14; first compound 0.01 µM): 0.138
- relative viability (PC-14; first compound 0.03162 µM): 0.123
- relative viability (PC-14; first compound 0.1 µM): 0.153
